In ChEMBL document CHEMBL1130710, “Design and synthesis of a novel class of nucleotide analogs with anti-HCMV activity” (Bioorg Med Chem Lett, 1998):
≈ marks a conversion by molar mass, not a printed value. Where “and” joins values, the source holds several entries; their conditions need not be identical. Identical values can stand only once.

Key:
[1] = test system: F2002 cell line; assay: (§1) Anti-HCMV activity against F2002 cell line; type: functional, cell-based, Homo sapiens
[2] = test system: F2002 cell line; assay: as §1; type: functional; conditions: Homo sapiens, read-out: CD50 (the source's name)
[3] = test system: F2002 cell line; assay: Compound was tested for Anti-HCMV activity against F2002 cell line(exp 2); type: functional, cell-based; conditions: Homo sapiens
[4] = test system: F2002 cell line; assay: Compound was tested for Anti-HCMV activity against F2002 cell line(exp 1); type: functional, cell-based; conditions: Homo sapiens
[5] = Homo sapiens, F2002, read-out: IC50

SMILES	IC50 ([1]; f2002)	CC50 [2] [µg/mL]	IC50 [1, 5] [µg/mL]	IC50 [3] [µg/mL]	IC50 [4] [µg/mL]
Nc1nc(O)c2ncn(CC3COC(P(=O)(O)O)O3)c2n1 (stereo in doubt; 7a)	20 µg/mL (≈ 63.1 µM)				
Nc1ncnc2c1ncn2CC1COC(P(=O)(O)O)O1 (stereo unspecified)		> 100	> 100		
N.Nc1nc(O)c2ncn(C[C@H]3CO[C@@H](P(=O)(O)O)O3)c2n1		> 100	> 100		
N.Nc1nc(O)c2ncn(C[C@@H]3CO[C@H](P(=O)(O)O)O3)c2n1	45 µg/mL and > 100 µg/mL				
N.Nc1nc(O)c2ncn(C[C@H]3CO[C@H](P(=O)(O)O)O3)c2n1		> 30	> 30		
Nc1nc2c(ncn2COC(CO)CO)c(=O)[nH]1 [GANCICLOVIR]		> 100		0.2 (≈ 0.784 µM)	0.1 (≈ 0.392 µM)
Cc1cn(CC2COC(P(=O)(O)O)O2)c(=O)[nH]c1=O (stereo unspecified)		> 100	> 100		
N.Nc1nc(O)c2ncn(C[C@@H]3CO[C@@H](P(=O)(O)O)O3)c2n1		> 100	> 100		
Nc1nc(O)c2ncn(CC3COC(P(=O)(O)O)O3)c2n1 (stereo in doubt; 7b)	> 100 µg/mL	> 100			
N.O=c1ccn(CC2COC(P(=O)(O)O)O2)c(=O)[nH]1 (stereo unspecified)		> 100	> 100		
Nc1ccn(CC2COC(P(=O)(O)O)O2)c(=O)n1 (stereo unspecified)		> 100	> 100		
